The values below are quoted from earlier work in patent US20060252698A1, “Compounds for inhibiting cathepsin activity” (priority 2005, published 2006).

SMILES strings stand for the structures.

The test system of this series is melanoma A375 tumors. Particulars: melanoma A375 tumors implanted into the left ventricle of the heart; cited from earlier work.

Consider `CN(C)C(=O)[C@H](Cc1ccccc1)NC(=O)[C@H]1O[C@@H]1C(=O)NCCc1ccccn1` [CLIK-148], for which the “distant bone metastasis to the femur and tibia” value is “reduced distant bone metastasis”.
